Measurements: patent US20020091086A1, “Peptides that block viral infectivity and methods of use thereof” (priority 1999, published 2002)
Peptide text beside a SMILES is read from it.

Legend:
SF162 strain of HIV-1 = experiment: antiviral activity of plasma of rats fed GPG-NH2 on infected PBMC, p24; type: cell-based; details: rat plasma diluted 1/5
Procedure: For the assessment of biologically active GPG-NH2 in the plasma of animals fed the small peptide, plasma samples were prepared from blood obtained from the rats of the four week toxicology study the day after the last feeding. The plasma samples were diluted ⅕ in RPMI medium and were adminstered to PBMC infected with the SF162 strain of HIV-1, as described above. Viral infectivity was then monitored at seven, eleven, and fourteen days post infection by detecting the amount of p24 in the supernatent using a commercially available detection assay. (Abbott). […] In some cases, the administration of as little as 10 μM GPG-NH2 provided a sufficient concentration of small peptide in the plasma to enable the inhibition of HIV-1 replication. The percent reduction was calculated as in Table 6. The results from these experiments established that small peptides described herein can be maintained at concentrations in the body of an animal that are effective at inhibiting HIV replication.

[1] = 18 day intraperitoneal toxicity in mice; type: in vivo; details: intraperitoneal 0.01, 0.1 and 1 g per kilo bodyweight and day, 18 days from age 6 days
Procedure: In this example, the results from several in vivo toxicology studies on small peptides administered in large doses to rodents are presented. In a first experiment, a large single dose of small peptide was delivered to mice and the toxic effects were analyzed. […] In a second experiment, several doses of varying amounts of a small peptide were delivered to mice for almost three weeks. Groups of mice (five mice in each group) were given intraperitoneal injections of GPG-NH2 (0.01, 0.1 and 1 g per kilo bodyweight and day, respectively) starting at an age of 6 days. Daily injections were continued for 18 days. […] In a similar experiment, a four week toxicology study of GPG-NH2 was performed by Scantox A/S in Denmark. GPG-NH2 was given orally to rats at doses up to 1 g per kilo bodyweight per day for twenty eight days.

Jurkat-tat III cells = experiment: in vitro uptake of 14C-labelled GPG-NH2 into cells; type: in vitro ADME; details: 165 nCi (0.7 μM)
Procedure: (§1) Additionally, the in vitro uptake of small peptides from the culture medium into the cells was studied in a series of experiments. Accordingly, HUT78, Jurkat-tat III, and MT-2 cells were incubated with ^14C-labelled GPG-NH2 165 nCi (equivalent to 0.7 μM of GPG-NH2). An uptake of the small peptide was observed and between 8% (Jurkat-tat III cells) and 20% (HUT78 cells) of the GPG-NH2 was incorporated in the cells.

HUT78 cells = experiment: in vitro uptake of 14C-labelled GPG-NH2 into cells; type: in vitro ADME; details: 165 nCi (0.7 μM)
Procedure: as §1

GPG-deleted mutant mp8 = experiment: infectivity in MT-2 cells, p24 ELISA, GPG-deleted mutant mp8; type: cell-based, HIV-1
Procedure: Accordingly, the ability of GPG-NH2 to inhibit the infectivity of wild-type and V3-loop deletion mutants (GPG domain) in MT-2 cells was determined. In these experiments, approximately 200,000 MT-2 cells were infected with HIV-1Bru wild-type and GPG-deleted mutants mp8 and mp10 at 25 TCID50 to test the inhibitory effect of GPG-NH2 The MT-2 cells were resuspended in 1 ml of RPMT 1640 medium supplemented with 10% (v/v) heat-inactivated fetal bovine serum (FBS, GIBCO), penicillin (100μ/ml), streptomycin (100μ/ml) and Polybrene (Sigma 2 μg/ml) with or without the presence of GPG-NH2 at concentration 20 of μM and 100 μM. Thereafter, viruses were added at 25 TCID50 in a volume of 20-30 μl. Cells were incubated with virus at 37° C. for 16 hr then loosely pelleted by centrifugation at 170×g for 7 minutes. The cells were then washed three times in RPMI medium without peptides at room temperature by cell sedimentation at 170×g for 7 minutes as above. After the final wash, the cells were resuspended in RPMI culture medium in 24-well plate (Costar corporation) then kept at 37° C. in 5% CO2 with humidity. Culture supernatants were collected when medium was changed at day 4, 7, 11 and 14 post infection. To monitor the replication of virus, HIV-1 p24 antigen protein in the supernatants from day 7 and 14 was assayed by a ELISA kit (Abbott Laboratories) which has a linear dose-response range from 20 pg to 640 pg of p24 per ml and the p24 amount can be determined with aid of the regression line.

[2] = system: HIV-1 isolate p7141 (high PI); experiment: resistant HIV-1 isolates in PBMC, p24 ELISA; type: cell-based; details: GPG 100 μM, 14 days post infection
[3] = Exp. 1, day 7, Feeding GPG 10 (mg/ml)
[4] = Exp. 1, day 7, Feeding GPG 30 (mg/ml)
[5] = Exp. 1, day 7, Feeding GPG 100 (mg/ml)
[6] = Exp. 1, day 14, Feeding GPG 10 (mg/ml)
[7] = Exp. 1, day 14, Feeding GPG 30 (mg/ml)
[8] = Exp. 1, day 14, Feeding GPG 100 (mg/ml)
[9] = Exp. 2, day 7, Feeding GPG 10 (mg/ml)
[10] = Exp. 2, day 7, Feeding GPG 30 (mg/ml)
[11] = Exp. 2, day 7, Feeding GPG 100 (mg/ml)
[12] = Exp. 2, day 14, Feeding GPG 10 (mg/ml)
[13] = Exp. 2, day 14, Feeding GPG 30 (mg/ml)
[14] = Exp. 2, day 14, Feeding GPG 100 (mg/ml)
[15] = Exp. 3, day 14, Feeding GPG 10 (mg/ml)
[16] = Exp. 3, day 14, Feeding GPG 30 (mg/ml)
[17] = Exp. 3, day 14, Feeding GPG 100 (mg/ml)
[18] = Exp. 3, day (number not given), Feeding GPG 10 (mg/ml)
[19] = Exp. 3, day (number not given), Feeding GPG 30 (mg/ml)
[20] = Exp. 3, day (number not given), Feeding GPG 100 (mg/ml)
[21] = Exp. 4, day 11, Feeding GPG 10 (mg/ml)
[22] = Exp. 4, day 11, Feeding GPG 30 (mg/ml)
[23] = Exp. 4, day 11, Feeding GPG 100 (mg/ml)
[24] = Exp. 5, day 7, Feeding GPG 10 (mg/ml)
[25] = Exp. 5, day 7, Feeding GPG 30 (mg/ml)
[26] = Exp. 5, day 7, Feeding GPG 100 (mg/ml)

## NCC(=O)N1CCC[C@H]1C(=O)NCC(N)=O [GPG-NH2, glycyl-prolyl-glycine amide] (H-Gly-Pro-Gly-NH2)
SF162 strain of HIV-1; [3]
  % reduction: 82.8%
  p24: 93.3 pg/mL
SF162 strain of HIV-1; [4]
  % reduction: 95.6%
  p24: 24.0 pg/mL
SF162 strain of HIV-1; [5]
  % reduction: 67.8%
  p24: 174.7 pg/mL
SF162 strain of HIV-1; [6]
  % reduction: 92.8%
  p24: 1636 pg/mL
SF162 strain of HIV-1; [7]
  % reduction: 95.9%
  p24: 938 pg/mL
SF162 strain of HIV-1; [8]
  % reduction: 59.4%
  p24: 9211 pg/mL
SF162 strain of HIV-1; [9]
  % reduction: 31.9%
  p24: 219.2 pg/mL
SF162 strain of HIV-1; [10]
  % reduction: 39.6%
  p24: 194.3 pg/mL
SF162 strain of HIV-1; [11]
  % reduction: 46.1%
  p24: 173.5 pg/mL
SF162 strain of HIV-1; [12]
  % reduction: 0%
  p24: 4760.8 pg/mL
SF162 strain of HIV-1; [13]
  % reduction: 12.3%
  p24: 3574.4 pg/mL
SF162 strain of HIV-1; [14]
  % reduction: 45.9%
  p24: 2203.7 pg/mL
SF162 strain of HIV-1; [15]
  % reduction: 11.6%
  p24: 6700.6 pg/mL
SF162 strain of HIV-1; [16]
  % reduction: 9.1%
  p24: 6893.0 pg/mL
SF162 strain of HIV-1; [17]
  % reduction: 0%
  p24: 7578.4 pg/mL
SF162 strain of HIV-1; [18]
  % reduction: 0%
  p24: 255.6 pg/mL
SF162 strain of HIV-1; [19]
  % reduction: 41.7%
  p24: 107.3 pg/mL
SF162 strain of HIV-1; [20]
  % reduction: 47.3%
  p24: 96.9 pg/mL
SF162 strain of HIV-1; [21]
  % reduction: 29.8%
  p24: 170 pg/mL
SF162 strain of HIV-1; [22]
  % reduction: 0%
  p24: 487.4 pg/mL
SF162 strain of HIV-1; [23]
  % reduction: 78.6%
  p24: 51.7 pg/mL
SF162 strain of HIV-1; [24]
  % reduction: 73.9%
  p24: 79.6 pg/mL
SF162 strain of HIV-1; [25]
  % reduction: 0%
  p24: 439.3 pg/mL
SF162 strain of HIV-1; [26]
  % reduction: 80.3%
  p24: 60 pg/mL
gp160
  N- or O-linked glycosylation of the virus protein: no effect
[1]
  influence on the mice compared to controls: no significant influence
Jurkat-tat III cells
  GPG-NH2 incorporated in the cells: 8%
HUT78 cells
  GPG-NH2 incorporated in the cells: 20%
GPG-deleted mutant mp8; GPG 20 μM, Day 7
  p24: 2420 pg/mL
  reduction (%): 24%
GPG-deleted mutant mp8; GPG 20 μM, Day 14
  p24: 69100 pg/mL
  reduction (%): 53%
GPG-deleted mutant mp8; GPG 100 μM, Day 7
  p24: 208 pg/mL
  reduction (%): 93%
GPG-deleted mutant mp8; GPG 100 μM, Day 14
  p24: 7410 pg/mL
  reduction (%): 95%
[2]
  % reduction: (100%)
  HIV-1 p24: <500 pg/mL
